Test system: MDA-MB-231 multicell spheroids, viability
Experiment: Anticancer human tumor MDA-MB-231 cell line growth inhibition [PI3K];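 also: spheroids exposed to agents for seven days before reading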;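 as to viability, T/C: percent of vehicle control luminescence with DMSO treated spheroids as 100%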
Conditions: for IC50: curve of first compound; for viability, T/C: stronger effect = lower value; active = viability on the fitted dose curve at most 10% of control; inactive = the rest
Text: Combinatorial screen of targeted agents with the PI3K inhibitors inavolisib, alpelisib, duvelisib, and copanlisib in multi-cell type tumor spheroids
A high-throughput screen of multi-cell type tumor spheroids was designed to identify active combinations of targeted small molecules and PI3K pathway inhibitors. Complex spheroids include a stromal component modeled by human endothelial cells (HUVEC) and fibroblasts modeled by human mesenchymal stem cells (MSCs). The concentration ranges selected for each drug and investigational agent were based upon clinically achievable concentrations if the clinical Cmax of the agent was known.
Compounds. The drugs and investigational agents: inavolisib (NSC800729), alpelisib (NSC765974), duvelisib (NSC772469), copanlisib (NSC816437), ipatasertib (NSC767898), afuresertib (NSC778305), talazoparib (NSC767125), sapanisertib (NSC764658), selumetinib (NSC741078), tovorafenib (DAY101, NSC766906), vemurafenib (NSC761431), ravoxertinib (NSC781343), sotorasib (NSC818433), MRTX1133 (NSC 836407), abemaciclib (NSC 768073), palbociclib (NSC758247), venetoclax (NSC 766270), SY5609 (NSC837396), enzalutamide (NSC755605), and darolutamide (NSC825331), were obtained from the National Cancer Institute (NCI) Developmental Therapeutics Program Chemical Repository. The FDA-approved anticancer drug set is available from the NCI Developmental Therapeutics Program. […] The stock solutions were prepared in dimethyl sulfoxide (DMSO, Sigma-Aldrich, St. Louis, MO, cat. D2650) at 800-fold the tested concentration and stored at -70 degrees C prior to their use. All drugs and investigational agents were tested over a range starting from a high concentration at or near the clinical Cmax and decreasing in half-log increments. If the clinical Cmax for an agent had not been determined, the highest concentration tested was 10 microM.
Cell Culture. All cells were maintained in an incubator at 37 degrees C and 5% CO2 with 95% humidity. The PDC lines were cultured according to standard operating procedures established by the NCI PDMR (https://pdmr.cancer.gov/sops/default.htm). All PDCs were thawed and cultured in Matrigel-coated flasks prepared with a working solution of 1X Ham's F-12 nutrient mix, without supplementation (Invitrogen, Waltham, MA, cat. 11765054), 100 U/mL penicillin-streptomycin (Invitrogen, cat. 15140122), and 2.5% Matrigel (Corning Inc., Corning, NY, cat. 354248) for the first three passages. The 354836-022-R-J1-PDC, 475296-252-R-J1-PDC, and 997726-040-R-J2-PDC lines were cultured in 6A media, which includes advanced DMEM/F-12 (Thermo Fisher Scientific, cat. 12634028), 10 mM HEPES (Thermo Fisher Scientific, cat. 15630080), 1X GlutaMAX supplement (Thermo Fisher Scientific, cat. 35050061), 0.1 mg/mL primocin (InvivoGen, San Diego, CA, cat. ant-pm-2), 10% defined fetal bovine serum, heat inactivated (HyClone Laboratories Inc., Logan, UT, cat. SH30070.03HI), 50% L-WRN conditioned media (ATCC, cat. CRL-3276), 1.25 mM N-Acetyl-L-cysteine (Sigma-Aldrich, cat. A9165), 10 mM nicotinamide (Sigma-Aldrich, cat. N0636), 1X B-27 supplement (Thermo Fisher Scientific, cat. 17504044), 1X N-2 supplement (Thermo Fisher Scientific, cat. 17502048), and 10 microM Y-27632 dihydrochloride (Tocris Bioscience, Bristol, United Kingdom, cat. 1254). The 624824-186-R-J2-PDC line was cultured in 6C/Colon 1B media, which includes all 6A media components plus 50 ng/mL human EGF recombinant protein (Thermo Fisher Scientific, cat. PHG0311). […]

CCCS(=O)(=O)Nc1ccc(F)c(C(=O)c2c[nH]c3ncc(-c4ccc(Cl)cc4)cc23)c1F + CC(Nc1ccc2c(c1)OCCn1cc(N3C(=O)OCC3C(F)F)nc1-2)C(N)=O
1870 nM: IC50 (second compound 0.1 µM)
3620 nM: IC50 (second compound 0.01 µM)
1090 nM: IC50 (second compound 1 µM)
4510 nM: IC50 (second compound 0.00316 µM)
1240 nM: IC50 (second compound 0.316 µM)
inactive: viability, T/C (second compound 0.00316 µM, first compound 0.0316 µM) 98.5% | viability, T/C (second compound 0.00316 µM, first compound 0.1 µM) 94.9% | viability, T/C (second compound 0.00316 µM, first compound 0.316 µM) 100% | viability, T/C (second compound 0.00316 µM, first compound 1 µM) 86.9% | viability, T/C (second compound 0.00316 µM, first compound 3.16 µM) 59.2% | viability, T/C (second compound 0.00316 µM, first compound 10 µM) 29.9% | viability, T/C (second compound 0.01 µM, first compound 0.0316 µM) 98.3% | viability, T/C (second compound 0.01 µM, first compound 0.1 µM) 102% | viability, T/C (second compound 0.01 µM, first compound 0.316 µM) 93.3% | viability, T/C (second compound 0.01 µM, first compound 1 µM) 80.3% | viability, T/C (second compound 0.01 µM, first compound 3.16 µM) 52.8% | viability, T/C (second compound 0.01 µM, first compound 10 µM) 29.5% | viability, T/C (second compound 0.0316 µM, first compound 0.0316 µM) 80.5% | viability, T/C (second compound 0.0316 µM, first compound 0.1 µM) 81.6% | viability, T/C (second compound 0.0316 µM, first compound 0.316 µM) 79.9% | viability, T/C (second compound 0.0316 µM, first compound 1 µM) 66.3% | viability, T/C (second compound 0.0316 µM, first compound 3.16 µM) 45.5% | viability, T/C (second compound 0.0316 µM, first compound 10 µM) 26.6% | viability, T/C (second compound 0.1 µM, first compound 0.0316 µM) 80.8% | viability, T/C (second compound 0.1 µM, first compound 0.1 µM) 71.4% | viability, T/C (second compound 0.1 µM, first compound 0.316 µM) 68.6% | viability, T/C (second compound 0.1 µM, first compound 1 µM) 61.4% | viability, T/C (second compound 0.1 µM, first compound 3.16 µM) 41% | viability, T/C (second compound 0.1 µM, first compound 10 µM) 23.9% | viability, T/C (second compound 0.316 µM, first compound 0.0316 µM) 72% | viability, T/C (second compound 0.316 µM, first compound 0.1 µM) 68.4% | viability, T/C (second compound 0.316 µM, first compound 0.316 µM) 61.7% | viability, T/C (second compound 0.316 µM, first compound 1 µM) 54.7% | viability, T/C (second compound 0.316 µM, first compound 3.16 µM) 36.7% | viability, T/C (second compound 0.316 µM, first compound 10 µM) 21.7% | viability, T/C (second compound 1 µM, first compound 0.0316 µM) 65.4% | viability, T/C (second compound 1 µM, first compound 0.1 µM) 63.4% | viability, T/C (second compound 1 µM, first compound 0.316 µM) 59.8% | viability, T/C (second compound 1 µM, first compound 1 µM) 51% | viability, T/C (second compound 1 µM, first compound 3.16 µM) 36.9% | viability, T/C (second compound 1 µM, first compound 10 µM) 21.4%
2440 nM: IC50 (second compound 0.0316 µM)

From PubChem BioAssay AID1963958 (Molecular Pharmacology Branch, DTP, NCI, 2024)
